For data set [1] the following is noted: in vivo; cited from earlier work.
Data set [2] deals with Plasmodium falciparum D-6. Put plainly: In vitro antimalarial activity, semiautomated microdilution (hypoxanthine incorporation), D-6 clone. The settings on record: for IC50: Plasmodium falciparum, read-out: In Vitro Antimalarial Activity IC50, D-6. The class given is cell-based. The method, then:
(§1) The intrinsic antimalarial activities of deoxoartemisinin and various control drugs were quantitatively assessed by using modifications of the semiautomated microdilution method of Desjardins. Deoxoartemisinin was dissolved in DMSO and subsequently diluted in culture medium with 10% plasma. Equimolar starting concentrations were predetermined to generate well-defined concentration curves over a 64-fold range of dilutions. Microtiter plates prepared with serial dilutions of drug and parasite suspensions (at 0.5% parasitemia and 1.5% hematocrit) were incubated at 37° C. in an air-tight plexiglass box, which was flushed with 5% oxygen, 5% carbon dioxide, and 90% nitrogen. After 24 hours of incubation, cultures were labeled with tritiated hypoxanthine and incubated for an additional 18-20 hours prior to harvesting particulate matter on fiber glass strips. Hypoxanthine incorporation in each well was determined by scintillation spectrophotometry and served as an index of specific parasite growth rates. Computer-generated concentration-response curves were analyzed by non-linear regression, and 50% inhibitory concentrations were calculated for each drug. The antimalarial tests were conducted using cultures obtained from the Malaria Laboratory, Division of Experimental Therapeutics, WRAIR/WRAMC, Washington, D.C. The W-2 culture utilized in the testing of Example II was of Indochina origin, chloroquine-resistant and mefloquine-sensitive. The other culture D-6, used in the testing of Example II and reported in Table I, is of Sierra Leone origin, chloroquine-sensitive and mefloquine-resistant.
(§2) Set out in Table I are the comparative results obtained from in vitro testing the activity of the inventive compound, known antimalarial compounds, artemisinin, and another derivative of artemisinin.
(In general: Broth dilution looks for growth in wells or tubes with falling amounts of substance.)

Data set [3] relates to Plasmodium falciparum W-2. Put plainly: In vitro antimalarial activity, semiautomated microdilution (hypoxanthine incorporation), W-2 clone. In kind it is cell-based. The settings on record: for IC50: Plasmodium falciparum, read-out: In Vitro Antimalarial Activity IC50, W-2. The method, then: as §1, §2
The conditions of data set [4]: background statement; cited from earlier work.
A further data set deals with Plasmodium falciparum. Put plainly: Antimalarial screening tests in vitro. The class given is cell-based. The settings on record: nonperoxy compounds. The method, then:
as §1, with “The W-2 culture utilized in the testing of Example II was of Indochina origin, chloroquine-resistant and mefloquine-sensitive. The other culture D-6, used in the testing of Example II and reported in Table I, is of Sierra Leone origin, chloroquine-sensitive and mefloquine-resistant.” left out

Data set [5] can be described thus: Solubility and lipophilicity.
Setting [6] is: D-6 clone, Sierra Leone origin, chloroquine-sensitive and mefloquine-resistant.
The mark [7] stands for this setting: W-2 clone, Indochina origin, chloroquine-resistant and mefloquine-sensitive.

These results are taken from patent US5023353A, “Deoxoartemisinin: new compound and composition for the treatment of malaria” (priority 1990, dated 1991).

SMILES strings stand for the structures. ≈ marks a conversion by molar mass, not a printed value. Where two headings read alike, the source gives them in different places.

As a reminder, the IC50 is the concentration that inhibits the measured activity by half. As for `C[C@@H]1CC[C@H]2[C@@H](C)C(=O)O[C@@H]3O[C@@]4(C)CC[C@@H]1[C@]32OO4` [Artemisinin, artemisinin], the side effects result in data set [1] is “No side effects”. In addition, the IC50 in data set [2] (setting [6]) stood at 2.33 ng/mL (≈ 0.00825 µM); in data set [3] (setting [7]), 0.00121 µg/mL (≈ 0.00429 µM). Besides, the “solubility in water or oils” value in data set [4] is “only sparingly soluble in either water or oils”.
Turning to `OC(c1cc(C(F)(F)F)nc2c(C(F)(F)F)cccc12)C1CCCCN1` (centres unmarked) [Mefloquine], the half-inhibitory concentration (IC50) in data set [2] (setting [6]) stood at 7.3 ng/mL (≈ 0.0193 µM); in data set [3] (setting [7]), 0.00074 µg/mL (≈ 0.00196 µM).
For `COc1ncnc(NS(=O)(=O)c2ccc(N)cc2)c1OC` [Sulfadoxine] the same measures were 16.4 ng/mL (≈ 0.0527 µM) and 14.3 µg/mL (≈ 46.2 µM).
For `CCc1nc(N)nc(N)c1-c1ccc(Cl)cc1` [Pyrimethamine] the same measures were 0.05 ng/mL (≈ 0.000201 µM) and 0.0393 µg/mL (≈ 0.158 µM).
For `C[C@@H]1CC[C@H]2[C@@H](C)C(=O)O[C@@H]3O[C@@]4(C)CC[C@@H]1[C@]32O4` [Deoxyartemisinin, deoxyartemisinin], the 50% inhibitory concentration (IC50) in data set [2] (setting [6]) was determined as 762 ng/mL (≈ 2.86 µM). Further, the “activity in the antimalarial screening tests” value in the data set on Plasmodium falciparum is recorded as “failed to exhibit activity”.
On to `CN(C)[C@@H]1C(=O)C(C(N)=O)=C(O)[C@@]2(O)C(=O)C3=C(O)c4c(O)cccc4[C@@](C)(O)[C@H]3C[C@@H]12` [Tetracycline], for which the IC50 in data set [2] came to 7230 ng/mL (≈ 16.3 µM); in data set [3] it was 10.2 µg/mL (≈ 23 µM).
For `CCN(CC)CCCC(C)Nc1ccnc2cc(Cl)ccc12` (centres unmarked) [Chloroquine] the same measures were 2.69 ng/mL (≈ 0.00841 µM) and 0.0557 µg/mL (≈ 0.174 µM).
For `C=C[C@H]1C[N@@]2CC[C@H]1C[C@H]2[C@H](O)c1ccnc2ccc(OC)cc12` [Quinine] the same measures were 10.8 ng/mL (≈ 0.0333 µM) and 0.0597 µg/mL (≈ 0.184 µM).
Take `CC1CCC2C(C)COC3OC4(C)CCC1C32OO4` (centres unmarked) [Deoxoartemisinin, deoxoartemisinin]: the IC50 in data set [2] (setting [6]) stood at 0.58 ng/mL (≈ 0.00216 µM); in data set [3] (setting [7]) it was 0.00015 µg/mL (≈ 0.000559 µM). Moreover, in data set [2] (against chloroquine-sensitive malaria, relative to artemisinin), the “antimalarial activity in vitro as compared to artemisinin, chloroquine-sensitive malaria” value is “approximately eight”. In addition, the “antimalarial activity in vitro as compared to artemisinin, chloroquine-resistant malaria” value in data set [3] (against chloroquine-resistant malaria, relative to artemisinin) is recorded as “four”. Besides, in data set [5], the “solubility in organic solvents” value is “soluble in chloroform, diethylether, acetonitrile, cyclohexane and hexane”.
